{"source": "ChEMBL document CHEMBL1201862", "about": "“PubChem BioAssay data set” (2004)", "key": {"[1]": {"experiment": "cells", "type": "functional, cell-based"}, "[2]": {"experiment": "cells", "type": "functional, cell-based", "remark": "listed apart in the source"}, "[3]": {"biological_target": "Major prion protein (Homo sapiens, UniProt P04156)", "type": "functional, cell-based"}, "[4]": {"experiment": "cells"}, "[5]": {"biological_target": "Large T antigen (Simian virus 40, UniProt P03070)", "type": "functional, Betapolyomavirus macacae"}, "[6]": {"experiment": "viability loss in THP-1 monocytes – THP-1 cells, cytotoxicity control for Vif-APOBEC3G degradation inhibitor project, dose response (AID 1117359)", "type": "functional", "details": "THP-1"}, "[7]": {"biological_target": "T1, Protein Tat (Human immunodeficiency virus type 1 group M subtype B (isolate HXB2)(HIV-1), UniProt P04608)", "T1 sequence (P04608 whole entry)": "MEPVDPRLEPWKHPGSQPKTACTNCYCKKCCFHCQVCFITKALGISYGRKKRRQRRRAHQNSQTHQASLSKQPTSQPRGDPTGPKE", "type": "functional"}, "[8]": {"system": "Escherichia coli", "experiment": "microbe, parasite or virus in culture"}, "[9]": {"experiment": "Dd2 malaria parasite growth inhibition potency – SYBR Green, dry powder samples, dose response (AID 1159566);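 further: potency for growth inhibition with lower SYBR green DNA signal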", "type": "functional, cell-based"}, "[10]": {"experiment": "growth inhibition of PfATP4-mutant resistant parasites – NITD609-resistant line, SYBR Green, dry powder, dose response (AID 1159571);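 further: parasites synchronized at ring stage by sorbitol before testing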", "type": "functional, cell-based"}, "[11]": {"experiment": "growth inhibition of yeast DHODH-expressing 3D7 parasites – SYBR Green, dry powder samples, dose response (AID 1159570);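 further: parasite growth measured after 72 hours of compound exposure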", "type": "functional, cell-based"}, "[12]": {"experiment": "toxicity to human HepG2 hepatoma cells – cell-based, plate reader, dry powder samples, cytotoxicity control, dose response (AID 1159569);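 further: inhibitor potency with signal falling toward the positive control level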", "type": "functional"}, "[13]": {"experiment": "P. falciparum Dd2 growth inhibitors, dose response, SYBR Green, cherry-picked samples (AID 1159567)", "type": "functional, cell-based"}, "[14]": {"biological_target": "Prothrombin (Homo sapiens, UniProt P00734)", "experiment": "Thrombin 1536 HTS Dose Response Confirmation. [Related pubchem assays: 1046 (Thrombin 1536 HTS; hits were confirmed in this assay)]", "type": "functional"}, "[15]": {"biological_target": "Kallikrein-7 (Homo sapiens, UniProt P49862)", "experiment": "Fluorescence Intensity-based biochemical primary high throughput dose response assay to identify activators of kallikrein-7 (K7) zymogen."}, "[16]": {"experiment": "NIH3T3 cell viability loss – ATP luminescence, mouse fibroblasts, counter-screen, dose response (AID 2010);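 further: cells exposed to compound for about 90 hours before reading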", "type": "functional, cell-based"}, "[17]": {"experiment": "cells", "remark": "listed apart in the source"}, "[18]": {"biological_target": "Cytochrome P450 3A4 (Homo sapiens, UniProt P08684)"}, "[19]": {"biological_target": "Cytochrome P450 2D6 (Homo sapiens, UniProt P10635)"}, "[20]": {"experiment": "Trypanosoma cruzi growth suppression in host cells – NIH3T3 host cells, beta-gal luminescence, confirmation (AID 2044);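 further: luminescent beta-galactosidase reporter signal from transgenic T. cruzi replicating inside host cells; inhibitors lower the luminescence signal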", "type": "functional, cell-based"}}, "note": "Active and inactive are the calls of the source.", "data": [{"smiles": "c1ccc(N/N=C(\\Cc2ncc[nH]2)c2ccccc2)cc1", "values": [{"measurement": "IC50", "setting": "[1]", "result": "> 29.9 µM (inactive)"}, {"measurement": "EC50", "setting": "[2]", "result": "> 29.9 µM (inactive)"}]}, {"smiles": "COc1ccc(S(=O)(=O)N2CCOCC2)cc1NC(=O)CSc1ncnc2ccccc12", "values": [{"measurement": "IC50", "setting": "[3]", "result": "2.66 µM (active)"}, {"measurement": "IC50", "setting": "[4]", "result": "> 138 µM (inactive)"}]}, {"smiles": "COc1ccc(-c2nc3c(C)cc(Br)cn3c2Cc2cccc(Cl)c2)cc1OC", "values": [{"measurement": "IC50", "setting": "[3]", "result": "7.52 µM (active)"}, {"measurement": "IC50", "setting": "[4]", "result": "> 138 µM (inactive)"}]}, {"smiles": "Cc1c(NC(=O)CN2CCN(c3ccc(O)cc3)CC2)c(=O)n(-c2ccccc2)n1C", "values": [{"measurement": "IC50", "setting": "[5]", "result": "13.7 µM (active)"}, {"measurement": "CC50", "setting": "[6]", "result": "> 40 µM (active)"}, {"measurement": "IC50", "setting": "[7]", "result": "> 100 µM (active)"}, {"measurement": "AC50", "setting": "[8]", "result": "38.1 µM (active)"}]}, {"smiles": "CN(C)C(=O)c1cccc(-c2cccc(-c3nc(C(=O)NC4CCCCC4)cc4c3[C@@H](CCO)N([S@+]([O-])C(C)(C)C)C4)c2)c1", "values": [{"measurement": "AC50", "setting": "[9]", "result": "232 nM (active)"}, {"measurement": "AC50", "setting": "[10]", "result": "484 nM (active)"}, {"measurement": "AC50", "setting": "[11]", "result": "806 nM (active)"}, {"measurement": "AC50", "setting": "[12]", "result": "31.4 µM (active)"}, {"measurement": "AC50", "setting": "[13]", "result": "1.62 µM (active)"}]}, {"smiles": "COC(=O)c1ccc(COC(=O)CNS(=O)(=O)c2ccccc2)cc1", "values": [{"measurement": "IC50", "setting": "[14]", "result": "> 50 µM (not active)"}]}, {"smiles": "COc1ccc(NC(=O)c2ccc(S(=O)(=O)N3CC(C)CC(C)C3)cc2)cc1S(N)(=O)=O", "note": "(stereo not drawn)", "values": [{"measurement": "EC50", "setting": "[15]", "result": "14.7 µM (inactive)"}]}, {"smiles": "COc1ccc(N(C(=O)c2ccco2)S(=O)(=O)c2ccccc2)cc1", "values": [{"measurement": "IC50", "setting": "[14]", "result": "4.64 µM (active)"}]}, {"smiles": "Cc1ccc(CCN2CC(C(=O)NCCCN(C)Cc3ccccc3)CC2=O)cc1", "note": "(stereo not drawn)", "values": [{"measurement": "EC50", "setting": "[16]", "result": "15.8 µM (active)"}, {"measurement": "EC50", "setting": "[17]", "result": "33 nM (active)"}, {"measurement": "AC50", "setting": "[18]", "result": "31.6 µM (inconclusive)"}, {"measurement": "AC50", "setting": "[19]", "result": "14.1 µM (inconclusive)"}, {"measurement": "EC50", "setting": "[20]", "result": "< 100 nM (active)"}]}, {"smiles": "Cc1oc2c(c(C)cc3oc(=O)c(CC(=O)N[C@@H](CCCNC(N)=O)C(=O)O)c(C)c32)c1C", "values": [{"measurement": "EC50", "setting": "[15]", "result": "69.3 µM (inactive)"}]}, {"smiles": "CC1=C(C#N)C(=O)N(C)C(C)(C)C1", "values": [{"measurement": "IC50", "setting": "[7]", "result": "> 100 µM (active)"}]}, {"smiles": "CN(C)CCN(C(=O)c1ccc(S(=O)(=O)N(C)C)cc1)c1nc2cc3c(cc2s1)OCCO3", "values": [{"measurement": "EC50", "setting": "[16]", "result": "> 30 µM (not active)"}, {"measurement": "EC50", "setting": "[17]", "result": "69 nM (active)"}, {"measurement": "EC50", "setting": "[20]", "result": "< 100 nM (active)"}]}]}
